Values quoted from earlier work as cited in patent US10729782B2, “Antibody-drug conjugate produced by binding through linker having hydrophilic structure” (DAIICHI SANKYO COMPANY, LIMITED, priority 2012, dated 2020).

Columns and labels:
[1] = tested on: human tumor subcutaneously transplanted mouse model; conditions: cited from earlier work
topoisomerase I = molecular target: T1, topoisomerase I (Homo sapiens, UniProt P11387); conditions: compared with SN-38 and topotecan; cited from earlier work
T1 sequence (P11387 1-765): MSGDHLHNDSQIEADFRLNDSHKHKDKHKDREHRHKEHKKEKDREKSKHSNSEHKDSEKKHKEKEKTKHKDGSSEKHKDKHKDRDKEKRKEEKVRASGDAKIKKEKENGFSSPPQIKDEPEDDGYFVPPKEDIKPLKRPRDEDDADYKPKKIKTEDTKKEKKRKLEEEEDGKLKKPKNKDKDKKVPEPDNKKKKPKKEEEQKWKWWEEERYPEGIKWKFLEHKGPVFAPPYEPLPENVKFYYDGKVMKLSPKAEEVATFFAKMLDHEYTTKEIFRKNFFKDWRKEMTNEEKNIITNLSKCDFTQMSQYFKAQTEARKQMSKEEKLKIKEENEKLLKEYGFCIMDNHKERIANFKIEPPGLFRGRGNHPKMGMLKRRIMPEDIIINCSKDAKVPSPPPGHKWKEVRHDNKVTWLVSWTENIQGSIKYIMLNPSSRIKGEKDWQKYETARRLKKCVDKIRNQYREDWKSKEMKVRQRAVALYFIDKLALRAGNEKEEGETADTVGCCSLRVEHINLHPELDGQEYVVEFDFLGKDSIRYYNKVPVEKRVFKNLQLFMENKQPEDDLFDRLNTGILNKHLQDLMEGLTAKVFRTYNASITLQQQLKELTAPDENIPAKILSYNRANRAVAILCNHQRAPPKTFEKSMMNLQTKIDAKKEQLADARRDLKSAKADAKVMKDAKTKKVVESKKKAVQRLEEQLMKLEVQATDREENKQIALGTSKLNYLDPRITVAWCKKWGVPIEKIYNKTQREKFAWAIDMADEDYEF

various cancer cells = conditions: against various cancer cells, compared with SN-38 and topotecan; cited from earlier work

For CC[C@@]1(O)C(=O)OCc2c1cc1n(c2=O)Cc2c-1nc1cc(F)c(C)c3c1c2[C@@H](N)CC3 [exatecan, (1S,9S)-1-amino-9-ethyl-5-fluoro-2,3-dihydro-9-hydroxy-4-methyl-1H,12H-benzo[de]pyrano[3′,4′:6,7]indolizino[1,2-b]quinolin-10,13(9H,15H)-dione], the antitumor effect [1] is listed as “potent antitumor effect”, the “inhibitory activity on topoisomerase I” value (topoisomerase I) is listed as “higher than SN-38” and the “in vitro cytocidal activity” value (various cancer cells) is listed as “higher in vitro cytocidal activity”.
